The values below come from ChEMBL document CHEMBL3881530, “Compounds and methods for inhibiting NHE-mediated antiport in the treatment of disorders associated with fluid retention or salt overload and gastrointestinal tract disorders” (2013).

As usually defined, the Cmax is the peak of the concentration-time curve. The AUC is the area under the concentration-time curve, a measure of exposure. For orientation: IC50 means the concentration that gives 50% inhibition. What is called Papp is the rate of passage across a membrane or cell layer, normalised by area and donor concentration.

Series [1] is described as follows: Cmax in Sprague-Dawley rat at 1.5 mg/kg administered via oral gavage measured up to 4 hrs by LC/MS/MS analysis. The series is classed as ADME, organism-based. Also on record: dose 1.5 mg/kg, route oral. As to conditions: in vivo.
Series [2] can be described thus: AUC in Sprague-Dawley rat at 1.5 mg/kg administered via oral gavage measured up to 4 hrs by LC/MS/MS analysis. Also on record: time < 4 hr, dose 1.5 mg/kg, route oral. Type of series: ADME, organism-based. The following applies: in vivo.
The nature of series [3]: Cmax in Sprague-Dawley rat at 1.3 mg/kg administered via oral gavage measured up to 4 hrs by LC/MS/MS analysis. Type of series: ADME, organism-based. As to conditions: in vivo. Also on record: dose 1.3 mg/kg, route oral.
The nature of series [4]: AUC in Sprague-Dawley rat at 1.3 mg/kg administered via oral gavage measured up to 4 hrs by LC/MS/MS analysis. As to conditions: in vivo. Also on record: dose 1.3 mg/kg, time < 4 hr, route oral. The series is classed as ADME, organism-based.
A short description of series [5]: Cmax in Sprague-Dawley rat at 27 mg/kg administered via oral gavage measured up to 4 hrs by LC/MS/MS analysis. The series is classed as ADME, organism-based. Also on record: dose 27 mg/kg, route oral. As to conditions: in vivo.
Series [6] is described as follows: AUC in Sprague-Dawley rat at 27 mg/kg administered via oral gavage measured up to 4 hrs by LC/MS/MS analysis. Type of series: ADME, organism-based. Also on record: time < 4 hr, dose 27 mg/kg, route oral. The following applies: in vivo.
The test system of series [7] is Rattus norvegicus. Description: Increase in fecal water content in Sprague-Dawley rat administered via oral gavage measured after 16 hrs. The series is classed as functional.
Series [8] is described as follows: Cmax in Sprague-Dawley rat at 2.4 mg/kg administered via oral gavage measured up to 4 hrs by LC/MS/MS analysis. The series is classed as ADME, organism-based. Also on record: dose 2.4 mg/kg, route oral. The following applies: in vivo.
Series [9] has as its target Sodium/hydrogen exchanger 1 (Homo sapiens, UniProt P19634). In words: Inhibition of NHE-1 (unknown origin).
Series [10] has as its target T1, Sodium/hydrogen exchanger 2 (Oryctolagus cuniculus, UniProt P50482).
T1 sequence (P50482 whole entry): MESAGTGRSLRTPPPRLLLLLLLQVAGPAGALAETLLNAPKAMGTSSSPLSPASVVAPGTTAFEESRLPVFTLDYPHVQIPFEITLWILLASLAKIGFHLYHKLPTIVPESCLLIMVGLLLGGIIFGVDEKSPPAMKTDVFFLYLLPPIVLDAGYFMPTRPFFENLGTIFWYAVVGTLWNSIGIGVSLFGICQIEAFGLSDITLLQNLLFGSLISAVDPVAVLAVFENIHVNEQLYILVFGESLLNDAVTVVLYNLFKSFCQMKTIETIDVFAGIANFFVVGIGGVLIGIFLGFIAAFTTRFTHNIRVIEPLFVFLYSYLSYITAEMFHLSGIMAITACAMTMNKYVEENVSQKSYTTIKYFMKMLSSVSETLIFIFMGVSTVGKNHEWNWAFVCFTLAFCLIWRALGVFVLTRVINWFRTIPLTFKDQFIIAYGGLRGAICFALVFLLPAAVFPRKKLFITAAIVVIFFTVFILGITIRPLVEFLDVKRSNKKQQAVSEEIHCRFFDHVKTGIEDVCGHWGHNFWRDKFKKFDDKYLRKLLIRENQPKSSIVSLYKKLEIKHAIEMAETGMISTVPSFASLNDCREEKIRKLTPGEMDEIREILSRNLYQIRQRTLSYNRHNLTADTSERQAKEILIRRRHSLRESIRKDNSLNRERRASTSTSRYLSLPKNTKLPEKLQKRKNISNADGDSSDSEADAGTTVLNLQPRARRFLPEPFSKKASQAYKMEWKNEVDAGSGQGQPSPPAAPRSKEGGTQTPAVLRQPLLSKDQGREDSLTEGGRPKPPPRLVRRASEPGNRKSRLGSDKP
In words: Inhibition of rabbit NHE-2.

Series [11] addresses T2, Sodium/hydrogen exchanger 3 (Homo sapiens, UniProt P48764).
T2 sequence (P48764 whole entry): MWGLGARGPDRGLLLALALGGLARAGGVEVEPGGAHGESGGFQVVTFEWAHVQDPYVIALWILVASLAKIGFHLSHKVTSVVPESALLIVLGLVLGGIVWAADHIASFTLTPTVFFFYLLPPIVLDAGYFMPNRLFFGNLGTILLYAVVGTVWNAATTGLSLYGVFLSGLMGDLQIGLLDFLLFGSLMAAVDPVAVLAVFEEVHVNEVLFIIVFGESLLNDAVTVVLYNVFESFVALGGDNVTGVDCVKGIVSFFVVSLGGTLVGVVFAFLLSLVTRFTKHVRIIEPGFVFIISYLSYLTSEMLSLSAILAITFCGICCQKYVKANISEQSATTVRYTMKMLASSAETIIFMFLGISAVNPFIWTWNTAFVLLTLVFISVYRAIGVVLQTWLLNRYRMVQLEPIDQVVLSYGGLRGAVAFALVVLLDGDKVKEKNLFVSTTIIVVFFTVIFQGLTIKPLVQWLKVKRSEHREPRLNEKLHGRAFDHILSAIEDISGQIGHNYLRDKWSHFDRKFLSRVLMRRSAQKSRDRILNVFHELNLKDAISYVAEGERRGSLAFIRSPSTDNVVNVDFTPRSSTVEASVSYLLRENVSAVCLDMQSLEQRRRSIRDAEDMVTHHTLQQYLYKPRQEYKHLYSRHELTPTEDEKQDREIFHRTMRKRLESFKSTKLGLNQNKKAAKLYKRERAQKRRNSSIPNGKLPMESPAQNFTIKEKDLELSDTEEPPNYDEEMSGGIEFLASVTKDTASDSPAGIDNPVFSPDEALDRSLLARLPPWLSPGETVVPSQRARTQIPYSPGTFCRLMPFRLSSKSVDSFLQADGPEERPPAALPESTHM
Description: Inhibition of NHE-3 (unknown origin).

Series [12] in a line: Cmax in Sprague-Dawley rat at 21 mg/kg administered via oral gavage measured up to 4 hrs by LC/MS/MS analysis. Type of series: ADME, organism-based. Also on record: dose 21 mg/kg, route oral. As to conditions: in vivo.
Series [13] is described as follows: AUC in Sprague-Dawley rat at 21 mg/kg administered via oral gavage measured up to 4 hrs by LC/MS/MS analysis. The series is classed as ADME, organism-based. Also on record: dose 21 mg/kg, time < 4 hr, route oral. The following applies: in vivo.
In series [14] the test system is Rattus norvegicus. Description: Reduction in fecal stool form in 1% psyllium diet fed Sprague-Dawley rat at 3 mg/kg administered via oral gavage measured after 16 hrs. The series is classed as functional, organism-based.
For series [15], the system named is Rattus norvegicus. In words: Increase in fecal water content in 1% psyllium diet fed Sprague-Dawley rat at 3 mg/kg administered via oral gavage measured after 16 hrs. The series is classed as functional, organism-based.
Series [16] deals with Rattus norvegicus. Description: Decrease in urinary sodium level in 1% psyllium diet fed Sprague-Dawley rat at 3 mg/kg administered via oral gavage measured after 16 hrs by ion chromatographic analysis. Type of series: functional, organism-based.
Series [17] deals with Rattus norvegicus. Description: Antinociceptive activity in Wistar rat assessed as inhibition of partial restraint stress-induced visceral hyperalgesia at 10 mg/kg, po administered 1 hr prior to 45 to 60 mm Hg colorectal distension pressure by measuring number of abdominal contractions monitoring every 5 mins during rectal distension. The series is classed as functional, organism-based. As to conditions: Abdominal cavity.

Series [18] concerns Rattus norvegicus. In words: Increase in fecal sodium level in Sprague-Dawley rat at 3 mg/kg administered via oral gavage measured after 16 hrs by ion chromatographic analysis. Type of series: functional, organism-based.
A short description of series [19]: Apparent permeability of the compound from apical to basolateral side at pH 7.4 after 3 hrs by PAMPA. Type of series: ADME. (In general: The PAMPA barrier holds no transporters, so it reflects passive diffusion.)
For series [20], the target named is Sodium/hydrogen exchanger 3 (Rattus norvegicus, UniProt P26433). Description: Inhibition of rat NHE-3.
Series [21] is described as follows: Cmax in Sprague-Dawley rat at 1.6 mg/kg administered via oral gavage measured up to 4 hrs by LC/MS/MS analysis. The series is classed as ADME, organism-based. Also on record: dose 1.6 mg/kg, route oral. As to conditions: in vivo.
Series [22] in a line: AUC in Sprague-Dawley rat at 1.6 mg/kg administered via oral gavage measured up to 4 hrs by LC/MS/MS analysis. The series is classed as ADME, organism-based. Also on record: time < 4 hr, dose 1.6 mg/kg, route oral. The following applies: in vivo.
The nature of series [23]: Cmax in Sprague-Dawley rat at 4.6 mg/kg administered via oral gavage measured up to 4 hrs by LC/MS/MS analysis. The series is classed as ADME, organism-based. Also on record: dose 4.6 mg/kg, route oral. As to conditions: in vivo.
The nature of series [24]: AUC in Sprague-Dawley rat at 4.6 mg/kg administered via oral gavage measured up to 4 hrs by LC/MS/MS analysis. Type of series: ADME, organism-based. Also on record: time < 4 hr, dose 4.6 mg/kg, route oral. As to conditions: in vivo.

Activity calls are given as the source filed them. No cut-off for these calls is given here.

Chain of Sodium/hydrogen exchanger 1 (P19634 whole entry): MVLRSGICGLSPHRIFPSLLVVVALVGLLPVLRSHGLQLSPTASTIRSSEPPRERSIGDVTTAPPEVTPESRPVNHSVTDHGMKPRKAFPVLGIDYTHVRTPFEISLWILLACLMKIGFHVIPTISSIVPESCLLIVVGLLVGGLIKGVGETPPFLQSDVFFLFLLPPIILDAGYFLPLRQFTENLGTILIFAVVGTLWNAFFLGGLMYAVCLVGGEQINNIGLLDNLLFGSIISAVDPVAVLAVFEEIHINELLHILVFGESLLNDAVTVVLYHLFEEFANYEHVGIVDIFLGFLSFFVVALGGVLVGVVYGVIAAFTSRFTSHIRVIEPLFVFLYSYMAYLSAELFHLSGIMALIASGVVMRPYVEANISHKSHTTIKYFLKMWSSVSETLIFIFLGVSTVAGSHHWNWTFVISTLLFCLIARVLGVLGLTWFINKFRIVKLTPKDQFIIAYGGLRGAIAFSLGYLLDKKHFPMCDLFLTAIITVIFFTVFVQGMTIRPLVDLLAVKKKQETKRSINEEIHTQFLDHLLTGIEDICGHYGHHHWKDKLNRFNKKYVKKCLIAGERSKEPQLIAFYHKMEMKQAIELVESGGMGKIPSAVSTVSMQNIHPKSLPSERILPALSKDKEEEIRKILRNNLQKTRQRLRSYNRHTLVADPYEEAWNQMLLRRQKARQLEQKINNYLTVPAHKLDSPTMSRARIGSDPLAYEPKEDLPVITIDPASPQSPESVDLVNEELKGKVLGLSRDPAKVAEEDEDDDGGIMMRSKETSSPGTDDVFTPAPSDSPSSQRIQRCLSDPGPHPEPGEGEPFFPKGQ
Chain of Sodium/hydrogen exchanger 3 (Rattus norvegicus, UniProt P26433) (P26433 whole entry): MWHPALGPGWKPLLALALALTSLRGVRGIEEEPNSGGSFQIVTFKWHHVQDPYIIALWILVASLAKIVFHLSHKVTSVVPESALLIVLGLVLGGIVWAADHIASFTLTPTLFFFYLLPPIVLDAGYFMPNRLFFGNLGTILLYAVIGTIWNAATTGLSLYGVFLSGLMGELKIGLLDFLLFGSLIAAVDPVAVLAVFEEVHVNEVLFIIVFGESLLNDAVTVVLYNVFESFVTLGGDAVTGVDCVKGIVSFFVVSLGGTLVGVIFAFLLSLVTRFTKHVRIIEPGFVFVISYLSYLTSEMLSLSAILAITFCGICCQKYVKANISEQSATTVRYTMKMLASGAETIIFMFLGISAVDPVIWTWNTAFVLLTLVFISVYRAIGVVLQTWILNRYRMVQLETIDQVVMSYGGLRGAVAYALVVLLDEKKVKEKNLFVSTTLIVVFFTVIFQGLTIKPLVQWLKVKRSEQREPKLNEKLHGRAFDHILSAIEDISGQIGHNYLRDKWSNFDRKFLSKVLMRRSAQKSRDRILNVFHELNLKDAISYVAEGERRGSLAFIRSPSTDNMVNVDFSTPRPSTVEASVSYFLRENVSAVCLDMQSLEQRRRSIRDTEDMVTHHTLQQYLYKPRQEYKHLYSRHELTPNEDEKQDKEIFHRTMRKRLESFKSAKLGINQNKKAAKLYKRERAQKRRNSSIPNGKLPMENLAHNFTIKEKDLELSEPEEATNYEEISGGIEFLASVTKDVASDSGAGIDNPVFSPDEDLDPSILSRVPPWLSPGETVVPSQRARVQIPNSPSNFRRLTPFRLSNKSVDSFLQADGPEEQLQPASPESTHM

`C/C(=C\c1cc(F)c(Oc2ccc(S(=O)(=O)NCCOCCOCCOCCNC(=O)[C@H](O)[C@@H](O)C(=O)NCCOCCOCCOCCNS(=O)(=O)c3ccc(Oc4c(F)cc(/C=C(\C)C(=O)N=C(N)N)cc4F)cc3)cc2)c(F)c1)C(=O)N=C(N)N`: the Cmax in series [1] was < 2.7 ng/mL. Also, the AUC at 4 h in series [2] was < 4.4 ng·h/mL.

The compound `CN1Cc2c(Cl)cc(Cl)cc2C(c2cccc(NS(=O)(=O)NCCP(=O)(O)O)c2)C1` (centres undefined) showed a Cmax in series [3] of 11 ng/mL. In [4], this compound showed an AUC at 4 h of 56 ng·h/mL.

For the compound `CN1Cc2c(Cl)cc(Cl)cc2[C@H](c2ccc(S(=O)(=O)NCCOCCOCCOCCNC(=O)C(O)C(O)C(=O)NCCOCCOCCOCCNS(=O)(=O)c3ccc([C@@H]4CN(C)Cc5c(Cl)cc(Cl)cc54)cc3)cc2)C1` (single isomer, unassigned), in series [5], the Cmax is < 3.5 ng/mL. Further, the AUC at 4 h in series [6] was < 5.3 ng·h/mL.

In the case of `CN1Cc2c(Cl)cc(Cl)cc2C(c2cccc(S(=O)(=O)NCCOCCOCCOCCNC(=O)C(O)C(O)C(=O)NCCOCCOCCOCCNS(=O)(=O)c3cccc(C4CN(C)Cc5c(Cl)cc(Cl)cc54)c3)c2)C1` (centres undefined), in the series on Rattus norvegicus [7], the Activity result was “Dose-dependent effect”.

As for `N=C(N)N1CCN(c2cccc(-c3nc(N=C(N)N)nc4ccc(Cl)cc34)c2)CC1`, the Cmax in series [8] came to 2 ng/mL.

Consider `C/C(=C\c1cc(C)ccc1/C=C(\C)C(=O)NC(=N)N)C(=O)N=C(N)N`, for which the IC50 in series [9] was found to be 3.6 µM; in series [10], 80 µM; in series [11], 0.02 µM.

For the compound `CN1Cc2c(Cl)cc(Cl)cc2C(c2cccc(S(=O)(=O)NCCOCCOCCOCCNC(=O)Nc3ccc(NC(=O)NCCOCCOCCOCCNS(=O)(=O)c4cccc([C@@H]5CN(C)Cc6c(Cl)cc(Cl)cc65)c4)cc3)c2)C1` (mixture of isomers), in [12], the Cmax is < 2 ng/mL. Besides, in series [13], the AUC at 4 h is < 2 ng·h/mL.

Regarding `CN1Cc2c(Cl)cc(Cl)cc2C(c2cccc(S(=O)(=O)NCCOCCOCCOCCNC(=O)C(O)C(O)C(=O)NCCOCCOCCOCCNS(=O)(=O)c3cccc(C4CN(C)Cc5c(Cl)cc(Cl)cc54)c3)c2)C1` (single isomer, unassigned), the result in the series with Rattus norvegicus [14], in the series on Rattus norvegicus [15], in the series on Rattus norvegicus [16] and in the series with Rattus norvegicus [18] was Active. Also, the inhibition result in the series with Rattus norvegicus [17] is “Active”.

For the compound `NC(N)=Nc1nc(-c2cccc(N3CCN(CCCC(=O)O)CC3)c2)c2cc(Cl)ccc2n1.O=C(O)C(F)(F)F`, the Papp at 3 h in series [19] came out at 0.4 ×10⁻⁶ cm/s.

Turning to `N=C(N)NC(=O)c1cnn(-c2cccc3ncccc23)c1C1CC1` [ZONIPORIDE], the IC50 in series [20] was > 500 µM.

`CN1Cc2c(Cl)cc(Cl)cc2C(c2cccc(S(=O)(=O)NCCN(CCNS(=O)(=O)c3cccc(C4CN(C)Cc5c(Cl)cc(Cl)cc54)c3)CCNS(=O)(=O)c3cccc(C4CN(C)Cc5c(Cl)cc(Cl)cc54)c3)c2)C1` (centres undefined) yielded a Cmax in [21] of 71 ng/mL. The compound further returned an AUC at 4 h in [22] of 159 ng·h/mL.

`C/C(=C\c1cc(F)c(Oc2ccc(S(=O)(=O)NCc3ccc(CP(=O)(O)O)cc3)cc2)c(F)c1)C(=O)N=C(N)N` registered a Cmax in series [23] of 14 ng/mL. For the same compound, the AUC at 4 h in [24] amounted to 9 ng·h/mL.
